{"source": "paper PMC12914960", "about": "“Repurposing a detrimental antibody epitope as targeted therapeutics for sepsis and rheumatoid arthritis” (Military Medical Research, 2026)", "key": {"[1]": {"system": "CLP-induced sepsis in BALB/c mice", "assay": "Septic survival after cecal ligation and puncture (CLP)", "format": "in vivo, mouse", "conditions": "i.p.", "method": "Experimental sepsis was induced in BALB/c mice via CLP as previously described. […] The animals were randomly assigned to the control vehicle (n = 10 or n = 20) or experimental groups (n = 10 or n = 20). P2 (5.0 mg/kg), P2-1 (0.1 mg/kg or 1.0 mg/kg), or tetranectin N-terminal deletion mutant (ΔTN) (1.0 mg/kg) were administered intraperitoneally (i.p.) at the indicated time points, and survival rates were monitored. To elucidate P2-1’s protective mechanisms, a separate group of BALB/c mice (n = 4) underwent CLP and received P2-1 (1.0 mg/kg) at 2 h and 20 h post-CLP. At 24 h post-CLP, the animals were euthanized, blood was collected, and serum cytokines and chemokines were measured via murine cytokine antibody arrays as previously described. More details are presented in Additional file 1: Methods.\nFor these preclinical studies, animals were random ly assigned to experimental groups and treated with P2, P2-1, or a pCTS-L-neutralizing mAb2 according to the indicated dosing regimens. Outcomes, including septic survival rates, arthritis severity, pain sensitivity, and joint tissue histology scores, were collected under blinded experiment al conditions. The study d esign and sample si zes fo r each exp eriment are d etailed in the figure legends. No data, including outlier values, were excluded. For skewed data, outliers were defined via the interquartile range (IQR) method as any value below Q 1 –(1.5 × IQR) or above Q 3 + (1.5 × IQR). For normally distributed data, outliers were defined via the Z-score method as any value with an absolute Z-score greater than 2 or 3. The primary data are reported in Additional file 4. All the reagent sources are listed in Additional file 1: Table S1 .\nCecal ligation and puncture (CLP) sepsis model […]\nscreening. c Expression and purification of recombinant full-length human TN (residues 1 – 181) and its N-terminal deletion mutant ( ΔTN, residues 45 – 181). […] Recombinant Δ TN was given intraperitoneally at 24 h and 48 h post-C L P, and animal survival rates were monitored. *P < 0.0 5. […]"}, "[2]": {"system": "CAIA-induced pain sensitivity in BALB/c mice", "assay": "Mechanical allodynia, Von Frey filaments, in CAIA mice", "format": "in vivo, mouse", "set-up": "key to CAIA-induced pain sensitivity (Von Frey score) / CAIA-induced pain response (Vor Frey score): 50% paw withdrawal threshold, force in g", "conditions": "for CAIA-induced pain response (Vor Frey score): female, effect of mAb2, P2-1", "method": "Mechanical allodynia was assessed using Von Frey filaments (Stoelting Co., Wood Dale, IL, USA) applied to the plantar surface of the hind paws as previously described. The mice (n = 6–10) were habituated to individual transparent enclosures on an elevated wire mesh platform. Calibrated Von Frey filaments (0.008–2.000 g) were applied for 2–3 s or until a withdrawal response occurred. The “up-down” method determines the 50% paw withdrawal threshold, defined as the force required to elicit a withdrawal response in 50% of applications."}, "[3]": {"system": "Differentiated human macrophages", "assay": "HMGB1-induced macrophage death, LDH release", "format": "cell-based", "set-up": "key: % of maximal LDH release (2% Triton X-100)", "conditions": "16 h, percentage of maximal release (2% Triton X-100) per method, individual replicates", "method": "Human macrophage differentiation and treatment\nHuman PBMCs were differentiated into macrophages by culturing in human macrophage colony-stimulating factor (M-CSF, 20 ng/ml) for 5 – 6 d. Differentiated macrophages were maintained in Dulbecco’s modified Eagle’s medium supplemented with 1% penicillin/streptomycin and 10% human serum. Upon reaching 70 – 80% conflu ence, adh erent cells were wash ed and switched to Opti-MEM I before stimulation with recombinant HMGB1 (0.5 µg/ml) with or without P2- 1 (5.0 or 10 µg/ml) for 16 […]\nCell viability was assessed via the tryp an blue excl usion and lactat e dehyd ro genase (LDH) release method as previously described . For trypan blue exclusion, random phase-contr ast images were captur ed , and the percentage of nonviable, trypan blue-stained cells was calculated. LDH release in the culture medium was quantified with an LDH Ass ay Kit (Cat. #L7572, Pointe Scientific Inc., Canton, MI, USA) according to the manufacturer ’s instructions. Optical density was measured at 340 nm, and LDH content was expressed as a per centag e of maximal release in the presence of 2% Triton X-100. The experiments were performed 5 – 7 times ( n= 5 –7 biological replicates). […]"}}, "note": "Values joined by “and” are separate entries in the source; they are usually repeats but may differ in a detail not shown here. Equal entries are not always repeated. Where a SMILES comes first, the peptide text is derived from it."}
{"smiles": "CCCC[C@H](NC(=O)[C@H](Cc1c[nH]cn1)NC(=O)[C@@H](NC(=O)[C@H](CCCCN)NC(=O)[C@@H](N)[C@@H](C)O)C(C)C)C(=O)N[C@@H](CCCCN)C(=O)N[C@@H](CO)C(=O)N[C@@H](Cc1ccccc1)C(=O)N[C@@H](CC(C)C)C(=O)N[C@@H](C)C(=O)N[C@@H](Cc1ccccc1)C(=O)N[C@@H](CCC(N)=O)C(=O)N[C@H](C(=O)N[C@@H](CCCCN)C(=O)N[C@H](C(=O)O)[C@@H](C)O)[C@@H](C)O", "note": "[P2-1] (HELM PEPTIDE1{T.K.V.H.[Nle].K.S.F.L.A.F.Q.T.K.T}$$$$V2.0; N-terminus and C-terminus assumed)", "values": [{"measurement": "septic survival, in words", "setting": "[1]; P2-1 0.1 mg/kg at 2, 20, 28, 44, and 52 h post-CLP", "result": "conferred significant protection against sepsis"}, {"measurement": "septic survival, in words", "setting": "[1]; P2-1 1.0 mg/kg at 24 h and 48 h post-CLP", "result": "potent protection against lethal sepsis even with delayed therapeutic administration"}, {"measurement": "CAIA-induced pain sensitivity (Von Frey score)", "setting": "[2]; CAIA + P2-1 (Day 10), individual values, P = 0.04443 vs. CAIA + Vehicle", "result": "0.14 and 0.17 and 1.23 and 0.05 and 0.75 and 0.26 and 0.09 and 0.57 and 0.18 and 0.16 and 0.44 and 0.78"}, {"measurement": "pain sensitivity, in words", "setting": "[2]; P2-1 prophylactic", "result": "significantly reduced CAIA-induced pain sensitivity through partial restoration of mechanical withdrawal thresholds"}, {"measurement": "pain sensitivity, in words", "setting": "[2]; P2-1 therapeutic, Von Frey", "result": "significantly reduced CAIA-induced pain sensitivity by partially restoring withdrawal thresholds to mechanical stimuli"}, {"measurement": "CAIA-induced pain response (Vor Frey score)", "setting": "[2]; Day 6, individual values", "result": "0.37 and 0.11 and 0.21 and 0.16 and 1.19"}, {"measurement": "CAIA-induced pain response (Vor Frey score)", "setting": "[2]; Day 10, individual values, P = 0.04443 vs. CAIA + Vehicle", "result": "0.57 and 0.31 and 0.96 and 0.32 and 0.44"}, {"measurement": "LDH release", "setting": "[3]; HMGB1 0.5 µg/ml + P2-1 5.0 μg/ml", "result": "2.7008 and 6.752 and 2.4476 and 4.642 and 0.844 and 5.6548"}, {"measurement": "LDH release", "setting": "[3]; HMGB1 0.5 µg/ml + P2-1 10.0 μg/ml", "result": "1.0128 and 2.532 and 6.752 and 3.376 and 5.4016 and 2.6164 and 1.1816"}]}
